Experimental data published in patent US6737383B1, “Herbicidal oxadiazolidines” (priority 1999, dated 2004).

Experiments:
giant foxtail = experiment: Test B pre/postemergence giant foxtail; type: in vivo, Setaria faberii
Outline: (§1)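 Herbicidal effect was estimated by eye on a ten-point control scale after plants spent twelve to sixteen days in a greenhouse following soil or foliar treatment. Foliar sprays targeted plants at one to four leaves; all doses were formulated in a non-phytotoxic solvent with surfactant.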

purple nutsedge = experiment: Test B pre/postemergence purple nutsedge; type: in vivo, Cyperus rotundus
Outline: as §1

velvetleaf = experiment: Test B pre/postemergence velvetleaf; type: in vivo, Abutilon theophrasti
Outline: as §1

blackgrass = experiment: Test B pre/postemergence blackgrass; type: in vivo, Alopecurus myosuroides
Outline: as §1

surinam grass = experiment: Test B pre/postemergence surinam grass; type: in vivo, Brachiaria decumbens
Outline: as §1

pigweed = experiment: Test B pre/postemergence pigweed; type: in vivo, Amaranthus retroflexus
Outline: as §1

wild oat = experiment: Test B pre/postemergence wild oat; type: in vivo, Avena fatua
Outline: as §1

cocklebur = experiment: Test B pre/postemergence cocklebur; type: in vivo, Xanthium strumarium
Outline: as §1

morningglory = experiment: Test B pre/postemergence morningglory; type: in vivo, Ipomoea hederacea
Outline: as §1

wheat = experiment: Test B pre/postemergence wheat; type: in vivo, Triticum aestivum
Outline: as §1

soybean = experiment: Test B pre/postemergence soybean; type: in vivo, Glycine max
Outline: as §1

corn = experiment: Test B pre/postemergence corn; type: in vivo, Zea mays
Outline: as §1

bedstraw = experiment: Test B pre/postemergence bedstraw; type: in vivo, Galium aparine
Outline: as §1

rape = experiment: Test B pre/postemergence rape; type: in vivo, Brassica napus
Outline: as §1

crabgrass = experiment: Test B pre/postemergence crabgrass; type: in vivo, Digitaria sanguinalis
Outline: as §1

sugar beet = experiment: Test B pre/postemergence sugar beet; type: in vivo, Beta vulgaris
Outline: as §1

[1] = Postemergence, Rate 62 g/ha, scale 0 to 10, 0 is no effect, 10 is complete control
[2] = Postemergence, Rate 125 g/ha, scale of 0 to 10 where 0 is no effect and 10 is complete control
[3] = Postemergence, Rate 500 g/ha, scale 0 (no effect) to 10 (complete control)
[4] = Preemergence, Rate 250 g/ha, scale 0 (no effect) to 10 (complete control)
[5] = Rate 62 g/ha, Preemergence, scale 0 to 10
[6] = Rate 125 g/ha, Preemergence, scale 0 to 10 (0 no effect, 10 complete control)
[7] = Rate 250 g/ha, Postemergence, scale 0 to 10, 0 is no effect, 10 is complete control
[8] = Rate 500 g/ha, Preemergence, scale 0 to 10 (0 no effect, 10 complete control)

Compound: CON=CC(C)n1c(=O)on(C(=O)N(c2ccccc2)C(C)C)c1=O (centres unmarked) [Compound 790]
- Plant response rating, Giant foxtail (giant foxtail; [1]): 9
- Giant foxtail plant response rating (giant foxtail; [2]): 9
- Giant foxtail plant response rating (giant foxtail; [3]): 8
- Giant foxtail plant response rating (giant foxtail; [4]): lo
- Giant foxtail plant response rating (giant foxtail; [5]): 10
- Giant foxtail plant response rating (giant foxtail; [6]): 10
- Giant foxtail plant response rating (giant foxtail; [7]): 8
- Giant foxtail plant response rating (giant foxtail; [8]): 10
- Plant response rating, Nutsedge (purple nutsedge; [1]): 0
- Nutsedge plant response rating (purple nutsedge; [2]): 0
- Nutsedge plant response rating (purple nutsedge; [3]): 7
- Nutsedge plant response rating (purple nutsedge; [5]): 0
- Nutsedge plant response rating (purple nutsedge; [6]): 0
- Nutsedge plant response rating (purple nutsedge; [7]): 5
- Nutsedge plant response rating (purple nutsedge; [8]): 0
- Plant response rating, Velvetleaf (velvetleaf; [1]): 4
- Velvetleaf plant response rating (velvetleaf; [3]): 7
- Velvetleaf plant response rating (velvetleaf; [5]): 0
- Velvetleaf plant response rating (velvetleaf; [6]): 2
- Velvetleaf plant response rating (velvetleaf; [7]): 5
- Velvetleaf plant response rating (velvetleaf; [8]): 7
- Plant response rating, Blackgrass (blackgrass; [1]): 4
- Blackgrass plant response rating (blackgrass; [2]): 5
- Blackgrass plant response rating (blackgrass; [3]): 5
- Blackgrass plant response rating (blackgrass; [4]): 9
- Blackgrass plant response rating (blackgrass; [5]): 8
- Blackgrass plant response rating (blackgrass; [6]): 9
- Blackgrass plant response rating (blackgrass; [7]): 5
- Blackgrass plant response rating (blackgrass; [8]): 10
- Plant response rating, B. signalgrass (surinam grass; [1]): 2
- B. signalgrass plant response rating (surinam grass; [2]): 6
- B. signalgrass plant response rating (surinam grass; [4]): 9
- B. signalgrass plant response rating (surinam grass; Rate 62 g/ha, Preemergence, scale 0 (no effect) to 10 (complete control)): 8
- B. signalgrass plant response rating (surinam grass; [6]): 9
- B. signalgrass plant response rating (surinam grass; [7]): 7
- B. signalgrass plant response rating (surinam grass; Rate 500 g/ha, Postemergence, scale 0 to 10, 0 is no effect, 10 is complete control): 7
- B. signalgrass plant response rating (surinam grass; [8]): 9
- Plant response rating, Redroot pigweed (pigweed; [1]): 0
- Redroot pigweed plant response rating (pigweed; [2]): 5
- Redroot pigweed plant response rating (pigweed; [3]): 5
- Redroot pigweed plant response rating (pigweed; [5]): 2
- Redroot pigweed plant response rating (pigweed; [6]): 6
- Redroot pigweed plant response rating (pigweed; [7]): 5
- Redroot pigweed plant response rating (pigweed; [8]): 10
- Plant response rating, Wild oats (wild oat; [1]): 0
- Wild oats plant response rating (wild oat; [3]): 3
- Wild oats plant response rating (wild oat; [5]): 0
- Wild oats plant response rating (wild oat; [6]): 6
- Wild oats plant response rating (wild oat; [7]): 0
- Wild oats plant response rating (wild oat; [8]): 10
- Plant response rating, Cocklebur (cocklebur; [1]): 0
- Cocklebur plant response rating (cocklebur; [2]): 0
- Cocklebur plant response rating (cocklebur; [3]): 0
- Cocklebur plant response rating (cocklebur; [4]): 10
- Cocklebur plant response rating (cocklebur; [5]): 0
- Cocklebur plant response rating (cocklebur; [6]): 0
- Cocklebur plant response rating (cocklebur; [7]): 0
- Cocklebur plant response rating (cocklebur; [8]): 10
- Plant response rating, Morningglory (morningglory; [1]): 2
- Morningglory plant response rating (morningglory; [2]): 4
- Morningglory plant response rating (morningglory; [3]): 10
- Morningglory plant response rating (morningglory; [5]): 0
- Morningglory plant response rating (morningglory; [6]): 0
- Morningglory plant response rating (morningglory; [7]): 7
- Morningglory plant response rating (morningglory; [8]): 7
- Plant response rating, Wheat (wheat; [1]): 2
- Wheat plant response rating (wheat; [3]): 5
- Wheat plant response rating (wheat; [5]): 0
- Wheat plant response rating (wheat; [6]): 2
- Wheat plant response rating (wheat; [7]): 4
- Wheat plant response rating (wheat; [8]): 9
- Plant response rating, Soybean (soybean; [1]): 2
- Soybean plant response rating (soybean; [3]): 4
- Soybean plant response rating (soybean; [5]): 0
- Soybean plant response rating (soybean; [6]): 0
- Soybean plant response rating (soybean; [7]): 4
- Soybean plant response rating (soybean; [8]): 2
- Plant response rating, Corn (corn; [1]): 0
- Corn plant response rating (corn; [2]): 2
- Corn plant response rating (corn; [3]): 4
- Corn plant response rating (corn; [4]): 8
- Corn plant response rating (corn; [5]): 2
- Corn plant response rating (corn; [6]): 7
- Corn plant response rating (corn; [7]): 4
- Corn plant response rating (corn; [8]): 9
- Plant response rating, Bedstraw (bedstraw; [1]): 0
- Bedstraw plant response rating (bedstraw; [2]): 0
- Bedstraw plant response rating (bedstraw; [3]): 5
- Bedstraw plant response rating (bedstraw; [4]): 7
- Bedstraw plant response rating (bedstraw; [5]): 0
- Bedstraw plant response rating (bedstraw; [6]): 3
- Bedstraw plant response rating (bedstraw; [7]): 0
- Bedstraw plant response rating (bedstraw; [8]): 9
- Plant response rating, Rape (rape; [1]): 0
- Rape plant response rating (rape; [2]): 0
- Rape plant response rating (rape; [3]): 3
- Rape plant response rating (rape; [5]): 2
- Rape plant response rating (rape; [6]): 4
- Rape plant response rating (rape; [7]): 3
- Rape plant response rating (rape; [8]): 8
- Plant response rating, Crabgrass (crabgrass; [1]): 9
- Crabgrass plant response rating (crabgrass; [3]): 9
- Crabgrass plant response rating (crabgrass; [4]): 10
- Crabgrass plant response rating (crabgrass; [5]): 10
- Crabgrass plant response rating (crabgrass; [6]): 10
- Crabgrass plant response rating (crabgrass; [7]): 9
- Crabgrass plant response rating (crabgrass; [8]): 10
- Plant response rating, Sugarbeets (sugar beet; [1]): 0
- Sugarbeets plant response rating (sugar beet; [3]): 7
- Sugarbeets plant response rating (sugar beet; [5]): 1
- Sugarbeets plant response rating (sugar beet; [6]): 2
- Sugarbeets plant response rating (sugar beet; [7]): 0
- Sugarbeets plant response rating (sugar beet; [8]): 7
